Data reported in doi:10.1101/2021.03.15.435551, “Discovery of SARS-CoV-2 papain-like protease inhibitors through a combination of high-throughput screening and FlipGFP-based reporter assay” (bioRxiv, 2021).

Tests used:
[1] = target: T1, SARS-CoV-2 PL^pro (PL^pro; PL^pro-His) (Severe acute respiratory syndrome coronavirus 2, UniProt P0DTD1); experiment: FRET peptide cleavage assay; format: biochemical; conditions: Dabcyl-FTLRGG/APTKV-Edans substrate, 200 nM PLpro
T1 construct: gene rep

[2] = target: T2, SARS-CoV-2 M^pro (Severe acute respiratory syndrome coronavirus 2, UniProt P0DTD1); experiment: Mpro FRET peptide assay; format: biochemical; conditions: pH 6.5; Dabcyl-KTSAVLQ/SGFRKME(Edans) substrate
T2 construct: gene rep

[3] = target: T3, SARS-CoV-2 PL^pro (pcDNA3.1 SARS2 PL^pro, FlipGFP assay) (Severe acute respiratory syndrome coronavirus 2, UniProt P0DTD1); experiment: FlipGFP-PLpro reporter assay; format: cell-based; conditions: GFP/mCherry ratio, 48 h
T3 construct: gene rep

Row | Molecule | IC50 [1] [nM] | inhibition at up to 200 μM [2] [µM] | EC50 [3] [nM]
1 | C[C@H](c1ccc(Cl)cc1)N(C)Cc1cc(O)ccc1Cl [Jun9-13-4] | > 20000 | – | –
2 | CC(c1ccccc1Cl)N(C)Cc1cc(O)ccc1Cl (centres unmarked) [Jun9-13-7] | 7290 ± 1030 | > 200 | –
3 | Cc1ccc(N)cc1CN(C)[C@H](C)c1cccc2ccccc12 [Jun9-53-2] | 890 | – | –
4 | Jun9-75-5 | 560 | – | > 60000
5 | C[C@H](c1cccc2ccccc12)N(C)Cc1cccc2[nH]ccc12 [Jun9-75-4] | 620 | – | –
6 | CC(c1cc(F)ccc1F)N(C)Cc1cc(O)ccc1Cl (centres unmarked) [Jun9-29-5] | > 20000 | – | –
